Molecular target: T1, human A3 adenosine receptor (Homo sapiens, UniProt P0DMS8)
T1 construct: clone HS-21a contained the complete open reading frame corresponding to the human homolog of the rat A3 adenosine receptor; expressed in transfected cells; host or cells: CHO cells stably transfected with HS-21a cDNA
T1 sequence (P0DMS8 1-318): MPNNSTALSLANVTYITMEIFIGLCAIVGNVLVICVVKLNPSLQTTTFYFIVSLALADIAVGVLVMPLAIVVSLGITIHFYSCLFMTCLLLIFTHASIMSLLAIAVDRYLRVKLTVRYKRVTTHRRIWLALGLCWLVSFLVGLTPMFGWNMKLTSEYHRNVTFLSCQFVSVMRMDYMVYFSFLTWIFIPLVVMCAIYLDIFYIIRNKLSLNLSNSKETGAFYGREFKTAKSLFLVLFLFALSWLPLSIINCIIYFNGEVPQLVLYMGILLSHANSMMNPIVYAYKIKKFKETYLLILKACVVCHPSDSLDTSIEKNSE
Test: 125I-ABA binding to membranes of stably transfected CHO cells expressing the human A3 adenosine receptor (HS-21a)
Settings: human A3
Method: Membranes were prepared from transiently transfected COS7 cells […] after transfection or from G418-selected stably transfected CHO or HEK 293 cells. Cells were harvested in 1 mM EDTA in phosphate buffered saline and centrifuged at 2000×g for 10 minutes. The cell pellet was washed once with phosphate buffered saline. The cell pellet was resuspended in 2 mL of 5 mM Tris, pH 7.6/5mM MgCl2. Membranes were prepared from the cells by freeze-thaw lysis in which the suspension was frozen in a dry ice/ethanol bath and thawed at 25° C. twice. The suspension was homogenized after adding an additional 2 mL of 5 mM Tris, pH 7.6/5 mM MgCl2, in a glass dounce homogenizer with 20 strokes. The membranes were pelleted at 40,000×g at 4° C. for 20 minutes. The membrane pellet was resuspended at a protein concentration of 1-2 mg/mL in binding assay buffer, 50 mM Tris, pH 7.6/10 mM MgCl2. Protein concentration was determined by the method of Bradford ((1976) Anal. Biochem. 72: 248-250). […] Saturation binding of [^125 I]-N^6 -aminiobenizyladenosine (125I-ABA) or [^125 I]-N^6 -2-(4-amino-3-iodophenyl)ethyladenosine (APNEA) was performed on membranes prepared from pSVLA3 transfected COS7 cells. Membranes (100 μg) were incubated in the presence of 0.2 U/mL adenosine deaminase with increasing concentrations of ^125 I-ABA in the range of 0.1-30 nM for 120 minutes at 25° C. in a total volume of 500 μl. The binding assay was terminated by rapid filtration and three washes with ice-cold 50 mM Tris, pH 7.6/10 mM MgCl2 on a Skatron cell harvester equipped with a receptor binding flitermat (SKATRON INSTRUMENTS, INC). Non-specific binding was determined on non-transfected cells. Bound radioactivity was measured by scintillation counting in Ready Safe Scintillation Cocktail (BECKMAN).
The 1.7 kb HS-21a cDNA (A3) was subcloned as a SalI-BamHl fragment into the expression vector pCMV5 (Mumby, S. M., Heukeroth, R. O., Gordon, J. I. and Gilman, A. G. (1990) Proc. Natl. Acad. Sci. USA 87, 728-732.) creating the vector pCMV5-A3. CHO or HEK 293 cells stably expressing the human HS-21 a cDNA were prepared by co-transfection of 15 μg pCMV5-A3 and 1 μg pWLneo (Stratagene) using the calcium phosphate method. Stable cell lines were also generated using EBV based mammalian expression vectors, pREP (INVITROGEN). Neomycin resistant colonies were selected in 1 mg/mL G418 (GIBCO). Stable colonies were screened for expression of HS-21a by ^125 I-ABA binding.
Membranes were prepared from stable CHO cell lines in 10 mM Hepes, pH 7.4 containing 0.1 mM benzamidine and 0.1 mM PMSF as described (Mahan, L. C. et al., (1991) Mol. Pharinacol. 40, 1-7). Pellets were resuspended in 5 mM Hepes, pH 7.4/5 mM MgCl2 /0.1 mM benzarnidine/0.1 mM PMSF at a protein concentration of 1-2 mg/mL and were incubated with adenosine deaminase (Boehringer Mannheim), 2 U/mL at 37° C. for 20 minutes. Saturation binding of ^125 I-ABA was carried out on 50 μg of membranes for 120 minutes at 25° C. in a total volume of 100 μl. The assay was terminated by rapid filtration and three washes with ice-cold binding buffer on a Skatron harvester equipped with a receptor binding filtermat (Skatron Instruments, Inc.). The specific activity of ^125 I-ABA, initially 2,200 Ci/mmol, was reduced to 100 Ci/mmol with nonradioactive I-ABA for saturation analysis. Nonspecific binding was measured in the presence of 1 uM I-ABA. The KD and Bmax values were calculated by the EBDA program (McPherson, G. A. (1983) Computer Programs for Biomedicine 17, 107-114). Competition binding of agonists and antagonists was determined with ^125 I-ABA (0.17-2.0 nM, 2000 Ci/mmol). […] Binding data were analyzed and competition curves were constructed by use of the nonlinear regression curve fitting program Graph PAD InPlot, Version 3.0 (Graph Pad Software, San Diego).

A3 antagonist affinity in words: potent and selective A3 antagonist
SMILES: CCCn1c(=O)c2[nH]c(-c3cccc(C=CC(=O)O)c3)nc2n(CCC)c1=O [BW-3911]
